Data reported in US20050013853A1, “Anti-proliferative drugs” (priority 2000, published 2005).
pIC50: −log10 of the molar value. Like-named read-outs stand apart in the source and are kept apart here. Blank lines part the entries; values can stand above or below the molecule they belong to.

What was measured:
[1] = system: TNF-α secretion from mouse splenocytes; experiment: Con-A-induced TNF-α secretion from mouse splenocytes, ELISA; assay type: cell-based; conditions: 48 hours; for pIC50: Mus musculus, Splenocyte, 2.5-20 μM, mean of three experiments
Description: Cells treated with Con-A alone served as the control (“Con-A”).
In particular, mouse splenocyte cells 1×10 (cells/well) were exposed, for 48 hours, to the different drugs and ConA and at the end of the experiment plates were centrifuged and supernatant collected for cytokine determination and TNF-α levels were determined in soups by ELISA. (R&D #DY410 Minnapolis USA)
(§1) As described above, cells were exposed to each drug for 48 hours.

[2] = system: HaCat cells; experiment: Cell viability of HaCat keratinocytes, Neutral Red Staining; assay type: cell-based, human; conditions: for pIC50: Homo sapiens, HaCaT, read-out: Mean IC50 in keratinocytes, HaCat; for Responsiveness of HaCat cells (viability): comparison of thioridazine, doxorubicin, 5-FU, FIG. 3A; for Effect on viability of HaCat cells: 5-100 μM, 24 hr
Description: (§2) In general, 10,000 cells/well were treated with drugs from different categories of psychotropic drugs.
(§3) The effect of the drugs was compared at equimolar concentrations to that of two commonly used anticancer agents (Doxorubicin and 5-fluorouracil (5-FU)).

[3] = system: HaCat A5 cells; experiment: Cell viability of HaCat A5 keratinocytes, Neutral Red Staining; assay type: cell-based, human; conditions: for Effect on viability of HaCat A5 cells: 5-100 μM, 24 hr
Description: as §2, §3

[4] = system: HaCat II-4RT cells; experiment: Cell viability of HaCat II-4RT keratinocytes, Neutral Red Staining; assay type: cell-based, human; conditions: for Effect on viability of HaCat II4 cells: 5-100 μM, 24 hr
Description: as §2, §3

[5] = system: wild type B16 melanoma cells; experiment: Cell viability of wild type B16 melanoma cells; assay type: cell-based; conditions: 24 hr, 10-100 μM
[6] = system: MDR B16 melanoma cells; experiment: Cell viability of MDR B16 melanoma cells; assay type: cell-based; conditions: 24 hr
Description: Specifically, the different drugs were applied for 24 hr to the cells (20,000/well) at concentrations of 10, 20, 30, 50, 75 and 100 μM.

[7] = system: HaCat cells; experiment: Apoptosis by Hoechst 33342 / propidium iodide fluorescence microscopy; assay type: cell-based, human; conditions: 20 μM, 24 hours
Description: In particular, HaCat cells (10,000/well) were exposed to the different drugs (20 μM) or to saline (control). Twenty four hours post exposure, the cells were co-stained with the DNA binding dyes, Hoechst 33342 (20 μg/ml) propidium iodide (PI) (10 μg/ml), for 5 min at room temperature. The cells were then examined using a fluorescence microscope with ultraviolet excitation at 340-380 nm. Typically, intact cells are detected by a blue Hoechst fluorescence while fragmented nuclear is detected by a red fluorescence, indicating cells undergoing apoptosis [Harel et al., Sensitivity of HaCat keratinocytes to diabetogenic toxins, Biochem. Pharmacol., 63:171-178, 2002].

[8] = system: caspase-3 in human HaCaT cells; experiment: Caspase-3 activation, fluorimetric Ac-DEVD-AMC method; assay type: cell-based; conditions: 4 hours, paroxetine 10-20 μM, sertraline 10-[…] μM
Description: An additional marker for apoptosis is the activation of caspase-3 (a key mediator implicated in apoptosis in mammalian cells belong to the asparate-specific cysteinyl proteases or caspases).
In the following assay caspase-3 activation was measured by an enzymatic fluorimetric method, using fluorigenic substrate (Ac-DEVD-AMC) (Biomol, PA, USA) which produces a blue fluorescence detected at a 360 nm wavelength. The fluorigenic moiety AMC is cleaved from the substrate in the presence of caspase-3 (and caspase-3-like enzymes), which results in appearance of a yellow-green fluorescence monitored by a fluorimeter at 460 nm. The amount of the yellow-green fluorescence is proportional to the activity of the caspase-3 in the cell extract sample.
[…]. […] Measurements were determined, after the 4 hr exposure, every 3 min during 45 min, after which a specific caspase 3 inhibitor DEVD-AMC-CHO (Alexis corp. Lausen Switzerland) was added to half of the samples and measurements continued for another 45 min as previously described (Garcia-Calvo M, Peterson E P, Leiting B, Ruel R, Nicholson D W, Thornberry N A: Inhibition of human caspases by peptide-based and macromolecular inhibitors. J Biol Chem, 27(49):32608-13, 1998).

[9] = system: human lymphocytes; experiment: PHA-induced human lymphocyte proliferation, Alamar blue; assay type: cell-based; conditions: PHA 2.5 μg/ml, 48 hr, 3 healthy volunteers
Description: Human lymphocytes were isolated from whole blood of 3 healthy volunteers. Lymphocyte proliferation was induced by exposure 1×10^6 cells/well to phytohemagglutinin (PHA) (2.5 μg/ml). Cell viability was assessed 48 hr post exposure to paroxetine (2.5-10.0 μM) using Alamar blue reagent (Wildflower, Santa Fe, N.M., USA) staining Nociari M M, Shalev A, Benias P , et al. A novel one-step highly sensitive fluorimetric assay to evaluate cell-mediated cytotoxicity. J. Immunol. Methods 213(2): 157-167, 1998.

[10] = system: mouse splenocytes; experiment: Con-A-induced mouse splenocyte proliferation, Alamar blue; assay type: cell-based; conditions: for Splenocyte proliferation: 48 hours
Description: The effect of several psychotropic drugs on the proliferation of Con-A-induced mouse splenocyte proliferation was examined. The specific drugs evaluated included, without being limited thereto, the bicyclic antidepressants paroxetine and sertraline.
In particular, mouse splenocytes were isolated from C57BL healthy female mice. […]
Cell viability was assessed 48 hr later using Alamar blue staining.
(§4) In particular, cells 1×10^6 cells/well were exposed for 48 hours to each drug (2.5-10 μM).
as §1

[11] = system: IL-2 and INF-γ secretion from mouse splenocytes; experiment: Con-A-induced splenocyte secretion of IL-2 and INF-γ; assay type: cell-based; conditions: 48 hours, 2.5-10 μM; FIG. 14
Description: as §4

[12] = system: wild type B16 melanoma cells; experiment: Effect on doxorubicin toxicity in wild type B16 melanoma cells; assay type: cell-based; conditions: clomipramine 10, […], 20 μM + doxorubicin 1, 2.5, 5 μM, 24 hr
[13] = system: MDR B16 melanoma cells; experiment: Sensitization of MDR B16 melanoma cells to doxorubicin; assay type: cell-based; conditions: 24 hr
[14] = 24 hr post-administration, Neutral Red, mean of several experiments

pIC50 [1]: 6.22
Structure (SMILES): C[C@@H]1C[C@H]2[C@@H]3CCC4=CC(=O)C=C[C@]4(C)[C@@]3(F)[C@@H](O)C[C@]2(C)[C@@]1(O)C(=O)CO [dexamethasone]

Structure (SMILES): CN(C)CCCC1(c2ccc(F)cc2)OCc2cc(C#N)ccc21 (stereo not shown) [Citalopram, citalopram]
pIC50 [2, 14]: < 4.00

Structure (SMILES): O=c1[nH]cc(F)c(=O)[nH]1 [5-FU, 5-fluorouracil]
Responsiveness of HaCat cells (viability) [2]: resistant
Responsiveness of HaCat A5 cells (viability) ([3]; comparison of thioridazine, doxorubicin, 5-FU, FIG. 3B): resistant

Structure (SMILES): CN1CCN(C2=Nc3cc(Cl)ccc3Nc3ccccc32)CC1 [Clozapine, clozapine]
Effect on viability of HaCat cells [2]: effective in reducing viability
Effect on viability of HaCat A5 cells [3]: effective in reducing viability
Effect on viability of HaCat II4 cells [4]: effective in reducing viability
Viability of wild type B16 melanoma cells [5]: reduced in a dose dependent manner
Viability of MDR B16 melanoma cells [6]: reduced in a dose dependent manner

pIC50 [1]: 5.60
Structure (SMILES): Fc1ccc([C@@H]2CCNC[C@H]2COc2ccc3c(c2)OCO3)cc1 [Paroxetine, paroxetine]
Effect on viability of HaCat cells [2]: effective in reducing viability
pIC50 [2, 14]: 4.75
Effect on viability of HaCat A5 cells [3]: effective in reducing viability
Effect on viability of HaCat II4 cells [4]: effective in reducing viability
Red fluorescence of nuclei indicating apoptosis [7]: dramatic increase in red fluorescence of nuclei
Caspase-3 activity [8]: significant increase in caspase-3 activity
Viability of wild type B16 melanoma cells [5]: capable of reducing cell viability
pIC50 [9]: 5.00 to 5.30
Splenocyte proliferation ([10]; 2.5-10 μM, FIG. 14): dose dependent decrease in splenocyte proliferation
Splenocyte proliferation ([10]; 2.5-25 μM, FIG. 16): inhibited cell proliferation and TNF-α secretion in a dose dependent manner
pIC50 ([10]; Mus musculus, Splenocyte, 48 hr, 2.5-10 μM, C57BL mice): 5.26 to 5.60
Lymphocyte-induced cytokine secretion (IL-2, INF-γ) [11]: decrease in the lymphocyte-induced cytokine secretion
TNF-α secretion ([1]; 2.5-25 μM, FIG. 16): inhibited cell proliferation and TNF-α secretion in a dose dependent manner

Structure (SMILES): COc1cccc2c1C(=O)c1c(O)c3c(c(O)c1C2=O)C[C@@](O)(C(=O)CO)C[C@@H]3O[C@H]1C[C@H](N)[C@H](O)[C@H](C)O1 [doxorubicin]
Responsiveness of HaCat cells (viability) [2]: equimolar IC50 as for thioridazine

Structure (SMILES): CN[C@H]1CC[C@@H](c2ccc(Cl)c(Cl)c2)c2ccccc21 [Sertraline, sertraline]
Caspase-3 activity [8]: significant increase in caspase-3 activity

Structure (SMILES): CSc1ccc2c(c1)N(CCC1CCCCN1C)c1ccccc1S2 (stereo not shown) [Thioridazine, thioridazine]
Effect on viability of HaCat cells [2]: effective in reducing viability
Effect on viability of HaCat A5 cells [3]: effective in reducing viability
Effect on viability of HaCat II4 cells [4]: effective in reducing viability

Structure (SMILES): CNCCC(Oc1ccc(C(F)(F)F)cc1)c1ccccc1 (stereo not shown) [Fluoxetine, fluoxetine]
Effect on viability of HaCat cells [2]: effective in reducing viability
Effect on viability of HaCat A5 cells [3]: effective in reducing viability
Effect on viability of HaCat II4 cells [4]: effective in reducing viability
Viability of wild type B16 melanoma cells [5]: capable of reducing cell viability, with fluoxetine being the most effective drug

Structure (SMILES): COc1ccc(C(CN(C)C)C2(O)CCCCC2)cc1 (stereo not shown) [Venlafaxine, venlafaxine]
pIC50 [2, 14]: < 4.00

Structure (SMILES): NCCC(Oc1ccc(C(F)(F)F)cc1)c1ccccc1 (stereo not shown) [norfluoxetine]
Antiproliferative activity as compared to fluoxetine ([2]; viability of HaCat cells, FIG. 10): five times increased antiproliferative activity

Structure (SMILES): CN(C)CCCN1c2ccccc2CCc2ccccc21 [Imipramine, imipramine]
Effect on viability of HaCat cells [2]: effective in reducing viability
Effect on viability of HaCat A5 cells [3]: effective in reducing viability
pIC50 ([3]; Homo sapiens, HaCaT, 24 hr post-administration, Neutral Red, mean of several experiments): 4.21
Effect on viability of HaCat II4 cells [4]: effective in reducing viability
pIC50 ([4]; Homo sapiens, HaCaT, 24 hr post-administration, Neutral Red, mean of several experiments, read-out: Mean IC50 in keratinocytes, HaCatII4RT): 4.32

Structure (SMILES): CN(C)CCCN1c2ccccc2CCc2ccc(Cl)cc21 [Clomipramine, clomipramine]
Effect on viability of HaCat cells [2]: effective in reducing viability
Effect on viability of HaCat A5 cells [3]: effective in reducing viability
Effect on viability of HaCat II4 cells [4]: effective in reducing viability
Red fluorescence of nuclei indicating apoptosis [7]: dramatic increase in red fluorescence of nuclei
Viability of wild type B16 melanoma cells [5]: capable of reducing cell viability
Cell viability from control, in combination with doxorubicin [12]: less than 15%
Cell viability in combination with doxorubicin [13]: significantly reduced, in a dose dependant manner
Splenocyte proliferation ([10]; 2.5-10 μM, FIG. 14): dose dependent decrease in splenocyte proliferation
Lymphocyte-induced cytokine secretion (IL-2, INF-γ) [11]: decrease in the lymphocyte-induced cytokine secretion

Structure (SMILES): CCOc1ccccc1OC(c1ccccc1)C1CNCCO1 (stereo not shown) [Reboxetine, reboxetine]
pIC50 ([2]; 24 h): < 4.00
